The values below come from patent US20240009123A1, “MULTI-SUPPLEMENT DELIVERY SYSTEM” (priority 2022, published 2024).

Data set [1] in a line: Release of vitamins during tea bag steeping process (UV spectrophotometry). It is filed as physicochemical. The settings on record: for release rate: 4° C., pH 5; for release rate (total amount released): initial 2-minute brewing period, water of pH 5, 4° C., tea bag, spray-dried powder of Example 1.
Description: To evaluate the release of encapsulated vitamins from the spray-dried powder into water, 30 mg spray-dried powders was placed in the tea bag, which was then immersed in a beaker containing 30 mL of deionized water (pH 5). The beaker was placed in a shaker and shaken slowly in a water bath at 4° C. or 100° C. At appropriate brewing time intervals, an aliquot of solution (0.5 mL) was removed with a pipette for measuring the released vitamins. To determine the amount of water-soluble vitamins, the pH of solution was adjusted to pH 1, followed by filtration (filter pore size 50 μm). […] The release rate was determined by the following equation: release rate (%)=(released vitamins/initially added vitamins)×100.
At appropriate steeping time intervals, an aliquot of solution (0.5 mL) was removed with a pipette for measuring the released vitamins. To determine the amount of water-soluble vitamins, the pH of solution was adjusted to pH 1, followed by filtration (filter pore size 50 μm). The filtrate was then collected and quantified using a UV-spectrophotometer for absorbance. A blank was prepared using deionized water at pH of 1 (adjusted by HCl).
The absorbance of Vitamin B6 was measured at a wavelength of 291 nm. The absorbance of Vitamin B12 was measured at a wavelength of 361 nm.
At appropriate steeping time intervals, an aliquot of solution (0.5 mL) was removed with a pipette for measuring the released vitamins. To determine the amount of oil-soluble vitamins, the pH of the solution was adjusted to a pH of 1, followed by filtration (filter pore size 50 μm). Then, 3 mL organic solvent (chloroform+methanol, 1:1, v/v) was added into the solution to extract the oil-soluble vitamins. After centrifugation at 1000 g for 5 min, the layer of chloroform was removed and quantified using the UV-spectrophotometer for absorbance. A blank was prepared using chloroform.
Using a UV-spectrophotometer, the absorbance of Vitamin A was measured at a wavelength of 326 nm. The absorbance of Vitamin E was measured at a wavelength of 295 nm.
Data set [2] is described as follows: Surface charge (zeta potential) at pH 5. It is filed as physicochemical. The procedure: A facile, green, and powerful strategy was explored to engineer a robust O/W emulsion for co-delivery of water-soluble vitamins (VC, VB6, VB12) and oil-soluble vitamins (VA, VE). The preparation involved the complexation of chitosan and water-soluble vitamins and subsequent formation of chitosan-stabilized O/W emulsions. The approach is illustrated in FIG. 1A. First, the chitosan-vitamin complexes were prepared by mixing solutions of chitosan, anthocyanins, and water-soluble vitamins in deionized water at pH 5. […] The resulting chitosan-vitamin complexes were mixed with canola oil containing oil-soluble vitamins. After homogenization by ultrasonication, the chitosan-stabilized emulsions can form as optically opaque homogenous suspensions. In the ultrasonication process, the chitosan-vitamin complexes tended to coat on the surface of oil droplets, providing a physical layer for stabilization of oil-soluble vitamins. […] The value of the zeta potential (mV) indicates the degree of electrostatic repulsion and is the indicator/predictor of the stability of the dispersed particles. The absolute value difference of positive and negative electrostatic charges, measured in mV, between vitamins and chitosan is not the only factor that keeps the vitamins on the interface.

With `CCCCCCCCCCCCCCCC(=O)OC/C=C(C)/C=C/C=C(C)/C=C/C1=C(C)CCCC1(C)C` [VA, retinol palmitate], in data set [1] (at 5 min), the release rate is 84.0%. For the same compound, the charge result in data set [2] is “negatively charged”.
Consider `O=C1O[C@H]([C@@H](O)CO)C(O)=C1O` [VC, Vitamin C], for which the “release rate (total amount released)” value in data set [1] is recorded as 96.5%. The charge result in data set [2] is recorded as “negatively charged”.
Vitamin B6 [VB6]: the “release rate (total amount released)” value in data set [1] is given as 98.8%. Moreover, in data set [2], the charge entry is “negatively charged”.
In the case of Vitamin B12 [VB12], the “release rate (total amount released)” value in data set [1] is reported as 100%. Also, the charge result in data set [2] was “slightly positively charged”.
In the case of anthocyanin [anthocyanins], in data set [2], the charge entry was “negatively charged”.
Compound tocopherols, mixed, FG [VE] gave a release rate in data set [1] (at 10 min) of 80.4%.
